Values after ≈ are worked out from the molar mass of the structure shown. Like-named read-outs stand apart in the source and are kept apart here.
Tests used:
[1] = Acid dissociation constant pKa; format: physicochemical; settings: mean measured, WG, monoprotic base
CYP3A4 [2] = molecular target: T1, CYP3A4 (Homo sapiens, UniProt P08684); assay: Enzyme kinetics; settings: human liver microsomes
[3] = Octanol-water partition coefficient logP / logD; format: physicochemical
[4] = 100 mg i.v. dose; cited from earlier work
[5] = Equilibrium solubility in aqueous and bio-relevant media; format: physicochemical; settings: fed state simulated intestinal fluid, pH 5.0
[6] = pH 1.1; ADAM model input; ref Taupitz 2013 42; cited from earlier work
WG PBPK model = assay: WG PBPK model; parameters: species or system human
[7] = Blood/plasma partition ratio; format: in vitro ADME; settings: WG
CYP3A4 [8] = molecular target: T1, CYP3A4; format: biochemical
[9] = tube adsorption method; ref Isoherranen 2004 (34); cited from earlier work
[10] = Fraction unbound in human liver microsomes; format: in vitro ADME; settings: equilibrium dialysis at 0.05-[…], calculated at […], WG
[11] = first-order absorption model, capsule fasted, adjusted to fit observed data

T1 sequence (P08684 whole entry): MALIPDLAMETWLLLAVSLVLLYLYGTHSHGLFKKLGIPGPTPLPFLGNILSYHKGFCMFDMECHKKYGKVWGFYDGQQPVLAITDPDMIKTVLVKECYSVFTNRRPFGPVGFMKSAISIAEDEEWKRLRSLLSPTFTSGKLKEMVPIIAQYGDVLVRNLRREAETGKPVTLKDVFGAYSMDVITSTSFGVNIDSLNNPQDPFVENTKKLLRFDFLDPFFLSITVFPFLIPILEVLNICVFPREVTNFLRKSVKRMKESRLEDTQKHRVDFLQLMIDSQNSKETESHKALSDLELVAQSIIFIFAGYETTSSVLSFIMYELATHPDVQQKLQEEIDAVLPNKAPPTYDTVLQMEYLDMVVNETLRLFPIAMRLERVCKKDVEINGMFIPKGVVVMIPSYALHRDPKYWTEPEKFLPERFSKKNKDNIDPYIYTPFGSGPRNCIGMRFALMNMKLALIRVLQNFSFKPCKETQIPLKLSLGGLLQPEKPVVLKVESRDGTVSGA

Row | pKa [1] | Km (CYP3A4 [2]) [µM] | Solubility in FeSSIF [5] [µg/mL] | Active uptake into hepatocyte (scaling factor) (WG PBPK model; estimated to best describe ITZ IV CL) | Fa (WG PBPK model; [11]) | ka (WG PBPK model; [11]) [h⁻¹] | SMILES | logP [3] | CL observed in vivo [4] | Intrinsic solubility [6] [µg/mL] | B/P [7] | pKa ([1]; pKa) | Ki (CYP3A4 [8]) [nM] | fu,mic ([…] HLM) [9] | fu,mic ([…] HLM) [10] | Fold less potent than previously reported (CYP3A4 inhibition) (CYP3A4 [8]; apparent Ki in microsomes with WG fu,mic vs literature)
1 | 3.64 | 0.0233 | 5 (≈ 7.09 µM) | 3.5 | 0.5 | 0.2 | CCC(C)n1ncn(-c2ccc(N3CCN(c4ccc(OCC5COC(Cn6cncn6)(c6ccc(Cl)cc6Cl)O5)cc4)CC3)cc2)c1=O (stereo not shown) [ITZ, itraconazole] | 4.9 | ~ 21 L/hour | 150 | – | – | – | – | – | –
2 | – | – | – | – | – | – | CC(O)C(C)n1ncn(-c2ccc(N3CCN(c4ccc(OCC5COC(Cn6cncn6)(c6ccc(Cl)cc6Cl)O5)cc4)CC3)cc2)c1=O (stereo not shown) [OH-ITZ, hydroxyitraconazole] | 4.1 | – | – | 0.55 | 4 | 8.2 | – | – | –
3 | – | – | – | – | – | – | O=c1[nH]ncn1-c1ccc(N2CCN(c3ccc(OCC4COC(Cn5cncn5)(c5ccc(Cl)cc5Cl)O4)cc3)CC2)cc1 (stereo not shown) [ND-ITZ] | – | – | – | – | – | – | 0.026 | 0.70 | approximately 40 fold

From paper PMC6765698 (CPT: Pharmacometrics & Systems Pharmacology, 2019)
